Earlier results on nine molecules are cited in PMC12736226, “Acid Versus Amide—Facts and Fallacies: A Case Study in Glycomimetic Ligand Design” (Molecules, 2025).

Each structure is given as a SMILES string.

The target in the data set is T1, E-selectin (Homo sapiens, UniProt P16581).
T1 construct: gene SELE; soluble extracellular lectin-domain fragment with Ca2+
T1 sequence (P16581 22-301): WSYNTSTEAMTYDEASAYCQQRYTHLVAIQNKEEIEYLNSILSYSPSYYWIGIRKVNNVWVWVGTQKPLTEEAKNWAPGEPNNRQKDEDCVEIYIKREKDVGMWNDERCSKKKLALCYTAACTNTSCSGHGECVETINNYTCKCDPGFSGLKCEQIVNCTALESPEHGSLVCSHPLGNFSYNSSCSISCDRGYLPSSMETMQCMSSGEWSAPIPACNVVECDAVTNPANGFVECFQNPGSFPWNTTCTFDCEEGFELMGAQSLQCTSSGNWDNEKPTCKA
Nature of the data set: microscale thermophoresis (MST). It is filed as binding. As to conditions: affinity data also reported in Ref. 25; read-out: Affinity KD MST [μM] (95% CI). From the text:
microscale thermophoresis (MST) on E-selectin
(In general: In MST a laser heats a spot of the sample, and binding alters the fluorescence response.)
`C[C@@H]1O[C@@H](O[C@@H]2CCCC[C@H]2O[C@@H]2O[C@H](CO)[C@H](O)[C@H](O[C@@H](CC3CCCCC3)C(=O)N(C)C)[C@H]2O)[C@@H](O)[C@H](O)[C@@H]1O` [3d]: the Kd was 34.6 µM.
Regarding `C[C@@H]1O[C@@H](O[C@@H]2CCCC[C@H]2O[C@@H]2O[C@H](CO)[C@H](O)[C@H](O[C@@H](CC3CCCCC3)C(=O)N3CC(C)(C)C3)[C@H]2O)[C@@H](O)[C@H](O)[C@@H]1O` [3i], the Kd was 38.2 µM.
Take `CCNC(=O)[C@H](CC1CCCCC1)O[C@H]1[C@@H](O)[C@@H](CO)O[C@@H](O[C@@H]2CCCC[C@H]2O[C@@H]2O[C@@H](C)[C@@H](O)[C@@H](O)[C@@H]2O)[C@@H]1O` [3c]: the Kd is 109 µM.
Turning to `CNC(=O)[C@H](CC1CCCCC1)O[C@H]1[C@@H](O)[C@@H](CO)O[C@@H](O[C@@H]2CCCC[C@H]2O[C@@H]2O[C@@H](C)[C@@H](O)[C@@H](O)[C@@H]2O)[C@@H]1O` [3b], the Kd is 112 µM.
For the molecule `C[C@@H]1O[C@@H](O[C@@H]2CCCC[C@H]2O[C@@H]2O[C@H](CO)[C@H](O)[C@H](O[C@@H](CC3CCCCC3)C(=O)N3CC(c4ccccc4)C3)[C@H]2O)[C@@H](O)[C@H](O)[C@@H]1O` [3h], the Kd is 16.2 µM.
As for `C[C@@H]1O[C@@H](O[C@@H]2CCCC[C@H]2O[C@@H]2O[C@H](CO)[C@H](O)[C@H](O[C@@H](CC3CCCCC3)C(=O)N3CCC3)[C@H]2O)[C@@H](O)[C@H](O)[C@@H]1O` [3f], the Kd is 17 µM.
In the case of `C[C@@H]1O[C@@H](O[C@@H]2CCCC[C@H]2O[C@@H]2O[C@H](CO)[C@H](O)[C@H](O[C@@H](CC3CCCCC3)C(=O)N3CCCC3)[C@H]2O)[C@@H](O)[C@H](O)[C@@H]1O` [3e], the Kd is 21.4 µM.
On to `C[C@@H]1O[C@@H](O[C@@H]2CCCC[C@H]2O[C@@H]2O[C@H](CO)[C@H](O)[C@H](O[C@@H](CC3CCCCC3)C(N)=O)[C@H]2O)[C@@H](O)[C@H](O)[C@@H]1O` [3a], for which the Kd is 166 µM.
Regarding `CC(=O)N[C@H]1[C@H]([C@H](O)[C@H](O)CO)O[C@@](O[C@H]2[C@@H](O)[C@@H](CO)O[C@@H](O[C@H]3[C@H](O[C@@H]4O[C@@H](C)[C@@H](O)[C@@H](O)[C@@H]4O)[C@@H](NC(C)=O)C(O)O[C@@H]3CO)[C@@H]2O)(C(=O)O)C[C@@H]1O` (stereo partly drawn) [compound 1, Sialyl Lewis^x], the Kd is 873 µM.

One may read the Kd as the equilibrium constant for the complex coming apart.
